From patent US20040024024A1, “Aromatic sulfone hydroxamates and their use as protease inhibitors” (priority 2001, published 2004)

Experiments:
Assay in all cases: In vitro MMP inhibition, IC50 determination (fluorogenic substrate I)
Assay type in all cases: biochemical
[1] = target: T1, Human recombinant MMP-1 (Homo sapiens, UniProt P03956)
T1 construct: made in house; host or cells: MMP-1-transfected HT-1080 cells (spent media)
T1 sequence (P03956 100-469): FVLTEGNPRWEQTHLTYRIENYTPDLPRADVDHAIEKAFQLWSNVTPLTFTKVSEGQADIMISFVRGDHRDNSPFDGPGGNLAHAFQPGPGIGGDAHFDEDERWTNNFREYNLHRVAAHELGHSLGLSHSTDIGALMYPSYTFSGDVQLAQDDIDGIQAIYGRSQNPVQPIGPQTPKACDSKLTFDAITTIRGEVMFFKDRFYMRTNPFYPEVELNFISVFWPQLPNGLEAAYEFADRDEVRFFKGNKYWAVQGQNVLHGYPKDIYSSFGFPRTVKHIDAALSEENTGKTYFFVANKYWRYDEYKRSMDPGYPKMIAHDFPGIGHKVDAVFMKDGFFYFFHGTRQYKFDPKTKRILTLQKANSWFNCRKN
Method in brief: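 Inhibitor dilutions were made in 100 mM Tris-HCl/100 mM NaCl/10 mM CaCl2 buffer, pH 7.5, and incubated at room temperature with activated proenzyme (from transfected HT-1080 media; APMA or trypsin) and 4 μM quenched methoxycoumarin peptide substrate. Loss of 415 nm fluorescence (328 nm excitation) against concentration gave IC50.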

[2] = target: T2, Human recombinant MMP-2 (Homo sapiens, UniProt P08253)
T2 construct: made in house; host or cells: MMP-2-transfected p2AHT2 cells
T2 sequence (P08253 110-660): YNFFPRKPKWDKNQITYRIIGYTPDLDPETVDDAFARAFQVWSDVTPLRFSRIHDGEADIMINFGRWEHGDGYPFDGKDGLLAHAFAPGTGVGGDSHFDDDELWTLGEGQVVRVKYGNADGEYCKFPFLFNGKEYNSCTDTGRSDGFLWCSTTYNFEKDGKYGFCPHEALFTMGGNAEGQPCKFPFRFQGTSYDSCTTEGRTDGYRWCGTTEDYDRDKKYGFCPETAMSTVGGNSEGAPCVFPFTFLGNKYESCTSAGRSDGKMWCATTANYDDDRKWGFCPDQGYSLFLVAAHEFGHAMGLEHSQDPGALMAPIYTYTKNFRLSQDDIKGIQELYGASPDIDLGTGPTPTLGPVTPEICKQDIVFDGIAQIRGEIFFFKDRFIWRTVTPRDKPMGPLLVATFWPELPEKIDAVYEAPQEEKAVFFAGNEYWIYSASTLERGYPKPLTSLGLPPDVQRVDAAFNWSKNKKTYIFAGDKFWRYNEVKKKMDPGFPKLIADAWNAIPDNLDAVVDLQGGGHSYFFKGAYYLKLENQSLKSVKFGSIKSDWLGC
Method in brief: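 IC50 was derived from the concentration-dependent fall in fluorescence (ex 328, em 415 nm) on Gly-Leu cleavage of 4 μM MCA/Dpa-quenched substrate I. Assays ran at room temperature in pH 7.5 Tris/NaCl/CaCl2/Brij buffer with MMP-2 activated by trypsin or APMA; inhibitors were diluted from 1% DMSO stocks.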

[3] = target: T3, Human recombinant MMP-14 (Homo sapiens, UniProt P50281)
T3 construct: The catalytic domain enzyme was expressed in E. coli inclusion bodies, solubilized in urea; made in house
Method in brief: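 IC50 came from reduced fluorescence (ex 328 nm, em 415 nm) as inhibitor concentration rose, with 4 μM substrate I cleaved at Gly-Leu. Room-temperature incubation in pH 7.5 Tris buffer with 10 mM CaCl2; the E. coli-expressed, refolded MMP-14 catalytic domain was activated with trypsin or APMA.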

[4] = target: T4, Human recombinant MMP-9 (Homo sapiens, UniProt P14780)
T4 construct: made in house; host or cells: MMP-9-transfected HT1080 cells (spent media)
Method in brief: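 Reduction in fluorescence (328 nm excitation, 415 nm emission) from cleavage of 4 μM quenched peptide substrate I, measured at room temperature against inhibitor concentration, gave IC50. Enzyme: trypsin- or APMA-activated MMP-9 purified from transfected HT1080 medium; buffer 100 mM Tris, 100 mM NaCl, 10 mM CaCl2, pH 7.5.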

[5] = target: T5, Human recombinant MMP-13 (Homo sapiens, UniProt P45452)
T5 construct: made in house; host or cells: baculovirus / insect cells
Method in brief: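 Fluorescence at 415 nm (excitation 328 nm) reports Gly-Leu cleavage of 4 μM quenched methoxycoumarin peptide substrate I. Human recombinant MMP-13, activated by trypsin or APMA, was incubated at room temperature with varied inhibitor concentrations in pH 7.5 Tris/NaCl/CaCl2 buffer; IC50 derived from reduced fluorescence.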

[6] = value outside parentheses (Ki in parenthesis)

T4 sequence (P14780 107-707 limits assumed): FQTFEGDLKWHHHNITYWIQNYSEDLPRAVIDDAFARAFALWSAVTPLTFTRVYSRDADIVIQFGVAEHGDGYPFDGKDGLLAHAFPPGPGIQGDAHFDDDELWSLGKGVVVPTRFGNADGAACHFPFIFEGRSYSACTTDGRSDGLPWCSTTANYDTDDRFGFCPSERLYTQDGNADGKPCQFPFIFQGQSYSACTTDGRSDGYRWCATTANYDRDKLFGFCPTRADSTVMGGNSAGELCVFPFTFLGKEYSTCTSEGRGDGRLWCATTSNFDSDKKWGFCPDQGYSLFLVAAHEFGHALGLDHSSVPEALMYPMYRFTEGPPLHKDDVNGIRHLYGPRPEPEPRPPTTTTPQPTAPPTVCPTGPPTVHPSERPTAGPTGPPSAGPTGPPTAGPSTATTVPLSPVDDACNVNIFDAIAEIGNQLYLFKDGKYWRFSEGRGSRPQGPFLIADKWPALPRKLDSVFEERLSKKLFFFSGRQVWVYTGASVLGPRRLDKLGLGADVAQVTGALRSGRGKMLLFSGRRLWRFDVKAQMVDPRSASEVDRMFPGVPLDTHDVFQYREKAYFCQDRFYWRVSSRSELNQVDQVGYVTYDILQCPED

SMILES | IC50 [1, 6] | IC50 [2, 6] | IC50 [3, 6] | IC50 [4, 6] | IC50 [5, 6] | IC50 ([1]; value outside parentheses) | IC50 ([2]; value outside parentheses) | IC50 ([3]; value outside parentheses) | IC50 ([4]; value outside parentheses) | IC50 ([5]; value outside parentheses)
COc1cc(COCCCOc2ccc(S(=O)(=O)C3(C(=O)NO)CCOCC3)cc2)cc(OC)c1 [Example 453] | > 10 µM | 0.013 µM | 5 µM | 0.8 µM | 0.003 µM | – | – | – | – | –
CCCCOCCCNc1ccc(S(=O)(=O)C2(C(=O)NO)CCOCC2)cc1 [Example 460] | > 10 µM | 0.145 µM | > 10 µM | 0.7 µM | 0.025 µM | – | – | – | – | –
O=C(NO)C1(S(=O)(=O)c2ccc(NCCCCc3ccccc3)cc2)CCOCC1 [Example 462] | > 10 µM | 0.011 µM | 6.5 µM | 0.018 µM | 0.007 µM | – | – | – | – | –
COc1ccc(CCCOc2ccc(S(=O)(=O)C3(C(=O)NO)CCOCC3)cc2)cc1 [Example 465] | > 10 µM | 0.004 µM | 1.8 µM | 0.18 µM | 0.0003 µM | – | – | – | – | –
COc1ccc(CCCOc2ccc(S(=O)(=O)C3(C(=O)NO)CCOCC3)cc2)cc1OC [Example 466] | > 10 µM | 0.11 µM | > 10 µM | 0.045 µM | 0.015 µM | – | – | – | – | –
CC(CCc1ccccc1)Oc1ccc(S(=O)(=O)C2(C(=O)NO)CCOCC2)cc1 (stereo not drawn) [Example 467] | > 10 µM | 0.94 µM | > 10 µM | 0.45 µM | 0.12 µM | – | – | – | – | –
COC(C)CCOc1ccc(S(=O)(=O)C2(C(=O)NO)CCOCC2)cc1 (stereo not drawn) [Example 472] | > 10 µM | 0.003 µM | 0.4 µM | 0.04 µM | 0.006 µM | – | – | – | – | –
COC(C)(C)CCOc1ccc(S(=O)(=O)C2(C(=O)NO)CCOCC2)cc1 [Example 473] | > 10 µM | 0.005 µM | 0.6 µM | 0.045 µM | 0.005 µM | – | – | – | – | –
CCCC(CCOc1ccc(S(=O)(=O)C2(C(=O)NO)CCOCC2)cc1)SC (stereo not drawn) [Example 475] | > 10 µM | 0.03 µM | 3.6 µM | 0.12 µM | 0.002 µM | – | – | – | – | –
CCCC(CCOc1ccc(S(=O)(=O)C2(C(=O)NO)CCOCC2)cc1)S(C)(=O)=O (stereo not drawn) [Example 476] | > 10 µM | 2.5 µM | > 10 µM | > 10 µM | 0.23 µM | – | – | – | – | –
O=C(NO)C1(S(=O)(=O)c2ccc(OCCC3CCCCC3)cc2)CCOCC1 [Example 478] | > 10 µM | 0.001 µM | 1.45 µM | 0.034 µM | 0.005 µM | – | – | – | – | –
C/C(=C\c1ccccc1)COc1ccc(S(=O)(=O)C2(C(=O)NO)CCOCC2)cc1 [Example 479] | 2.7 µM | 0.004 µM | 2 µM | 0.014 µM | 0.003 µM | – | – | – | – | –
O=C(NO)C1(S(=O)(=O)c2ccc(OC3CCOCC3)cc2)CCOCC1 [Example 480] | 4.2 µM | 0.018 µM | 1.4 µM | 0.06 µM | 0.011 µM | – | – | – | – | –
CN(C)c1ccc(/C=C/CCCOc2ccc(S(=O)(=O)C3(C(=O)NO)CCOCC3)cc2)cc1 [Example 486] | > 10 µM | 0.106 µM | > 10 µM | 0.255 µM | 0.0046 µM | – | – | – | – | –
COc1ccc(C(O)CCCCOc2ccc(S(=O)(=O)C3(C(=O)NO)CCOCC3)cc2)cc1 (stereo not drawn) [Example 487] | > 10 µM | 0.0031 µM | 1.57 µM | 0.169 µM | 0.0005 µM | – | – | – | – | –
O=C(CCCCOc1ccc(S(=O)(=O)C2(C(=O)NO)CCOCC2)cc1)c1ccc2ccccc2c1 [Example 489] | > 10 µM | 0.0582 µM | > 10 µM | > 10 µM | 0.0004 µM | – | – | – | – | –
CN(C)c1ccc(C(=O)CCCOc2ccc(S(=O)(=O)C3(C(=O)NO)CCOCC3)cc2)cc1 [Example 490] | > 10 µM | 0.0182 µM | 5.63 µM | 0.928 µM | 0.0002 µM | – | – | – | – | –
COc1ccc(C(=O)CCCOc2ccc(S(=O)(=O)C3(C(=O)NO)CCOCC3)cc2)cc1 [Example 491] | – | – | – | – | – | 7.31 µM | 0.0068 µM | 0.981 µM | 0.0942 µM | 0.0008 µM
O=C(CCCOc1ccc(S(=O)(=O)C2(C(=O)NO)CCOCC2)cc1)c1ccccc1 [Example 492] | – | – | – | – | – | 3.55 µM | 0.0035 µM | 0.574 µM | 0.0673 µM | 0.0007 µM
COc1ccc(C(=O)CCOc2ccc(S(=O)(=O)C3(C(=O)NO)CCOCC3)cc2)cc1 [Example 494] | – | – | – | – | – | 1.52 µM | < 0.0001 µM | 0.197 µM | 0.0136 µM | < 0.0001 µM
O=C(CCOc1ccc(S(=O)(=O)C2(C(=O)NO)CCOCC2)cc1)c1ccccc1 [Example 495] | – | – | – | – | – | 0.815 µM | 0.0019 µM | 0.505 µM | 0.0258 µM | 0.0017 µM
COc1ccc(-c2nnc(CCCOc3ccc(S(=O)(=O)C4(C(=O)NO)CCOCC4)cc3)o2)cc1 [Example 501] | – | – | – | – | – | > 10 µM | 0.184 µM | > 10 µM | 7.71 µM | 0.0014 µM
O=C(NO)C1(S(=O)(=O)c2ccc(OCCSc3nc4ccc(Cl)cc4o3)cc2)CCOCC1 [Example 502] | – | – | – | – | – | > 10 µM | 0.0227 µM | 5.64 µM | 0.16 µM | 0.001 µM
O=C(NO)C1(S(=O)(=O)c2ccc(OCCOCc3ccccn3)cc2)CCOCC1 [Example 515] | – | – | – | – | – | > 10 µM | 0.0898 µM | > 10 µM | 0.154 µM | 0.0242 µM
